Data from patent publication US7741485B2, “Benzenesulphonamide derivatives as herbicides or desiccant/defoliant compounds” (BASF Aktiengesellschaft, priority 2003, dated 2010).
One block for each compound: values may come before it.

Experiments:
[1] = test system: common morning glory; assay: greenhouse herbicidal test, pre-emergence treatment; type: in vivo; conditions: for control of morning glory, pre-emergence method: application rates of 6.2 and 3.1 g/ha; for pre-emergence activity against common morning glory: application rates of 12.5 and 6.2 g/ha
From the text: (§1) The seeds of the test plants were sown separately for each species. For the pre-emergence treatment, the active compounds, emulsified or suspended in water, were applied directly after sowing by means of finely distributing nozzles. The containers were irrigated gently to promote germination and growth and subsequently covered with transparent plastic hoods until the plants had rooted. This cover caused uniform germination of the test plants, unless this was adversely affected by the active compounds. The application rate for the pre- and post-emergence treatment was from 62.5 to 3.1 g of a.s./ha. Depending on the species, the plants were kept at 10-25° C. or 20-35° C. The test period extended over 2 to 4 weeks. During this time, the plants were tended, and their response to the individual treatments was evaluated. Evaluation was carried out using a scale from 0 to 100. 100 means no emergence of the plants, or complete destruction of at least the above-ground parts, and 0 means no damage, or normal course of growth. The plants used in the greenhouse experiments were composed of the following species: [table]

[2] = test system: pigweed; assay: as above; type: in vivo; conditions: for control of pigweed, pre-emergence method: application rates of 6.2 and 3.1 g/ha; for pre-emergence activity against pigweed: application rates of 12.5 and 6.2 g/ha
From the text: as §1

[3] = test system: velvet leaf; assay: as above; type: in vivo; conditions: for control of velvet leaf, pre-emergence method: application rates of 6.2 and 3.1 g/ha
From the text: as §1

[4] = test system: common lambsquarters; assay: as above; type: in vivo; conditions: for control of common lambsquarters, pre-emergence method: application rates of 6.2 and 3.1 g/ha; for pre-emergence activity against common lambsquarters: application rates of 12.5 and 6.2 g/ha
From the text: as §1

[5] = test system: ladysthumb; assay: greenhouse herbicidal test, post-emergence treatment; type: in vivo; conditions: for post-emergence activity against ladysthumb: application rates of 15.6 and 7.8 g/ha; for post-emergence activity against ladiesthumb: application rates of 15.63 g/ha
From the text: (§2) The seeds of the test plants were sown separately for each species. For the post-emergence treatment, the test plants were first grown to a height of 3 to 15 cm, depending on the plant form, and only then treated with the active compounds, emulsified or suspended in water. The test plants were for this purpose either sown directly and grown in the same containers, or they were first grown separately as seedlings and transplanted into the test containers a few days prior to treatment. The application rate for the pre- and post-emergence treatment was from 62.5 to 3.1 g of a.s./ha. Depending on the species, the plants were kept at 10-25° C. or 20-35° C. The test period extended over 2 to 4 weeks. During this time, the plants were tended, and their response to the individual treatments was evaluated. Evaluation was carried out using a scale from 0 to 100. 100 means no emergence of the plants, or complete destruction of at least the above-ground parts, and 0 means no damage, or normal course of growth. The plants used in the greenhouse experiments were composed of the following species: [table]

[6] = test system: common morning glory; assay: as above; type: in vivo
From the text: as §2

[7] = test system: pigweed; assay: as above; type: in vivo
From the text: as §2

[8] = test system: common lambsquarters; assay: as above; type: in vivo
From the text: as §2

[9] = test system: Bengal commelina; assay: greenhouse herbicidal test, post-emergence treatment; type: in vivo; conditions: application rates of 15.63 g/ha
From the text: as §2

[10] = test system: velvet leaf; assay: as above; type: in vivo; conditions: application rates of 15.63 g/ha
From the text: as §2

[11] = test system: cleavers harrif; assay: as above; type: in vivo; conditions: application rates of 15.63 g/ha
From the text: as §2

[12] = test system: wild buckwheat; assay: greenhouse herbicidal test, pre-emergence treatment; type: in vivo; conditions: application rates of 12.5 and 6.2 g/ha
From the text: as §1

[13] = test system: common nightshade; assay: as above; type: in vivo; conditions: application rates of 62.5 and 31.2 g/ha
From the text: as §1

[14] = application rates of 15.6 and 7.8 g/ha
[15] = application rates of 15.63 g/ha
[16] = application rates of 62.5 and 31.2 g/ha

SMILES: CC(C)COC(=O)NS(=O)(=O)c1cc(-n2c(=O)cc(C(F)(F)F)n(C)c2=O)c(F)cc1Cl [Compound 3.24]
control of morning glory, pre-emergence method [1]: very good | control of pigweed, pre-emergence method [2]: very good | control of velvet leaf, pre-emergence method [3]: very good | control of common lambsquarters, pre-emergence method [4]: very good

SMILES: CCOC(=O)NS(=O)(=O)c1cc(-n2c(=O)cc(C(F)(F)F)n(C)c2=O)c(F)cc1Cl [Compound 3.19]
post-emergence activity against ladysthumb [5]: very good | post-emergence activity against common morning glory [6, 14]: very good | post-emergence activity against pigweed [7, 14]: very good | post-emergence activity against common lambsquarters [8, 14]: very good

SMILES: Cn1c(C(F)(F)F)cc(=O)n(-c2cc(S(=O)(=O)NC(=O)OC3CCCC3)c(Cl)cc2F)c1=O [Compound 3.27]
post-emergence activity against ladysthumb [5]: very good | post-emergence activity against common morning glory [6, 14]: very good | post-emergence activity against pigweed [7, 14]: very good | post-emergence activity against common lambsquarters [8, 14]: very good

melting point: 114 to 116 °C
SMILES: CC(C)C(=O)NS(=O)(=O)c1cc(-n2c(=O)cc(C(F)(F)F)n(C)c2=O)ccc1Cl [Compound 4.5, N-isobutynyl-[2-chloro-5-(3,6-dihydro-3-methyl-2,6-dioxo-4-trifluoromethyl-1-(2H)-pyrimidinyl)]benzenesulfonamide]

SMILES: CNC(=O)NS(=O)(=O)c1cc(-n2c(=O)cc(C(F)(F)F)n(C)c2=O)c(F)cc1Cl [Compound 2.17]
post-emergence activity against Bengal commelina [9]: very good | post-emergence activity against velvet leaf [10]: very good | post-emergence activity against common lambsquarters [8, 15]: very good

SMILES: CCC(=O)NS(=O)(=O)c1cc(-n2c(=O)cc(C(F)(F)F)n(C)c2=O)c(F)cc1Cl [Compound 4.14]
post-emergence activity against ladiesthumb [5]: very good | post-emergence activity against cleavers harrif [11]: very good | post-emergence activity against pigweed [7, 15]: very good

SMILES: COC(=O)NS(=O)(=O)c1cc(-n2c(=O)cc(C(F)(F)F)n(C)c2=O)ccc1Cl [Compound 3.1]
pre-emergence activity against common morning glory [1]: very good | pre-emergence activity against wild buckwheat [12]: very good | pre-emergence activity against pigweed [2]: very good | pre-emergence activity against common lambsquarters [4]: very good

SMILES: CCCCOC(=O)NS(=O)(=O)c1cc(-n2c(=O)cc(C(F)(F)F)n(C)c2=O)c(F)cc1Cl [Compound 3.22]
post-emergence activity against ladysthumb [5]: very good | post-emergence activity against common morning glory [6, 14]: very good | post-emergence activity against pigweed [7, 14]: very good | post-emergence activity against common lambsquarters [8, 14]: very good

SMILES: Cn1c(C(F)(F)F)cc(=O)n(-c2cc(S(=O)(=O)NC(=O)OCc3ccccc3)c(Cl)cc2F)c1=O [Compound 3.32, Benzyl{2-chloro-4-fluoro-5-[3,6-dihydro-3-methyl-2,6-dioxo-4-trifluoromethyl-(2H)-pyrimidin-1-yl]phenyl}sulfonylcarbamate]
effectiveness against pigweed, pre-emergence method [2, 16]: very good | effectiveness against common nightshade, pre-emergence method [13]: very good | effectiveness against velvet leaf, pre-emergence method [3, 16]: very good | effectiveness against common lambsquarters, pre-emergence method [4, 16]: very good

SMILES: COC(=O)COC(=O)NS(=O)(=O)c1cc(-n2c(=O)cc(C(F)(F)F)n(C)c2=O)c(F)cc1Cl [Compound 3.41]
post-emergence activity against ladiesthumb [5]: very good | post-emergence activity against cleavers harrif [11]: very good | post-emergence activity against pigweed [7, 15]: very good

SMILES: COCC(C)(C)OC(=O)NS(=O)(=O)c1cc(-n2c(=O)cc(C(F)(F)F)n(C)c2=O)c(F)cc1Cl [Compound 3.42]
post-emergence activity against ladiesthumb [5]: very good | post-emergence activity against common morning glory [6, 15]: very good | post-emergence activity against velvet leaf [10]: very good

SMILES: COC(=O)NS(=O)(=O)c1cc(-n2c(=O)cc(C(F)(F)F)n(C)c2=O)c(F)cc1Cl [Compound 3.18]
pre-emergence activity against common morning glory [1]: very good | pre-emergence activity against wild buckwheat [12]: very good | pre-emergence activity against pigweed [2]: very good | pre-emergence activity against common lambsquarters [4]: very good

SMILES: CCCOC(=O)NS(=O)(=O)c1cc(-n2c(=O)cc(C(F)(F)F)n(C)c2=O)c(F)cc1Cl [Compound 3.20]
post-emergence activity against ladysthumb [5]: very good | post-emergence activity against common morning glory [6, 14]: very good | post-emergence activity against pigweed [7, 14]: very good | post-emergence activity against common lambsquarters [8, 14]: very good

SMILES: C#CC(C)N(C)C(=O)NS(=O)(=O)c1cc(-n2c(=O)cc(C(F)(F)F)n(C)c2=O)c(F)cc1Cl (stereo not drawn) [Compound 2.28]
post-emergence activity against common morning glory [6, 15]: very good | post-emergence activity against pigweed [7, 15]: very good | post-emergence activity against common lambsquarters [8, 15]: very good

SMILES: Cn1c(C(F)(F)F)cc(=O)n(-c2cc(S(=O)(=O)NC(=O)Nc3ccccc3)c(Cl)cc2F)c1=O [Compound 2.29]
post-emergence activity against common morning glory [6, 14]: very good | post-emergence activity against pigweed [7, 14]: very good | post-emergence activity against common lambsquarters [8, 14]: very good

SMILES: CC(C)C(=O)NS(=O)(=O)c1cc(-n2c(=O)cc(C(F)(F)F)n(C)c2=O)c(F)cc1Cl [Compound 4.16]
control of morning glory, pre-emergence method [1]: very good | control of pigweed, pre-emergence method [2]: very good | control of velvet leaf, pre-emergence method [3]: very good | control of common lambsquarters, pre-emergence method [4]: very good

SMILES: CC(C)N(C(=O)NS(=O)(=O)c1cc(-n2c(=O)cc(C(F)(F)F)n(C)c2=O)c(F)cc1Cl)C(C)C [Compound 2.27]
post-emergence activity against common morning glory [6, 15]: very good | post-emergence activity against pigweed [7, 15]: very good

SMILES: CCCCCOC(=O)NS(=O)(=O)c1cc(-n2c(=O)cc(C(F)(F)F)n(C)c2=O)c(F)cc1Cl [Compound 3.26]
post-emergence activity against common morning glory [6, 14]: very good | post-emergence activity against pigweed [7, 14]: very good | post-emergence activity against common lambsquarters [8, 14]: very good
